In patent US20240254118A1, “PRMT5 INHIBITORS AND USES THEREOF” (Gilead Sciences, Inc., priority 2022, published 2024):
pEC50: −log10 of the molar value.

Tests used:
[1] = system: HCT116 MTAP-deleted cells; assay: Cell viability assay (CellTiter-Glo, 7 days), HCT116 MTAP-deleted; conditions: Homo sapiens, HCT-116, 168 h
[2] = system: SDMA signal (PRMT5 inhibition) in HCT116 MTAP-deleted cells; assay: Symmetric di-methyl arginine image-based high content screen assay (SDMA assay), HCT116 MTAP-deleted; format: cell-based; conditions: SDMA assay; for pEC50: Homo sapiens, HCT-116, 72 h, 3 days of treatment, cell line not given, taken as HCT116 MTAP-deleted, read-out: EC50 (SDMA assay)
How it was run: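 HCT116 MTAP-deleted cells treated with compound until Day 3, then formalin-fixed, permeabilized and immunostained for SDMA, with DAPI nuclear counterstain. Imaged by high-content microscopy; SDMA read-out is mean Alexa 488 intensity per DAPI-defined cell, reflecting PRMT5 inhibition.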

[3] = taken as HCT116 WT versus MTAP-deleted
[4] = taken as HCT116 WT vs MTAP-deleted

Cn1ncc2c(N)nc3ccc(C(=O)N(Cc4ccc(C(F)(F)F)cn4)N4CCC(C)(C)CC4=O)cc3c21 [Example 31, 4-amino-N-(4,4-dimethyl-2-oxo-1-piperidyl)-1-methyl-N-[[5-(trifluoromethyl)-2-pyridyl]methyl]pyrazolo[4,3-c]quinoline-8-carboxamide]
CC50 [1]: < 100 nM
pEC50 [2]: 8.30 to 9.00
EC50 selectivity (SDMA assay) [2, 3]: 323

CN(C(=O)C(C)(F)F)N(Cc1ccc(C(F)(F)F)cn1)C(=O)c1ccc2nc(N)c3cnn(C)c3c2c1 [Example 189, 4-amino-N′-(2,2-difluoropropanoyl)-N′,1-dimethyl-N-[[5-(trifluoromethyl)-2-pyridyl]methyl]pyrazolo[4,3-c]quinoline-8-carbohydrazide]
CC50 [1]: < 100 nM
pEC50 [2]: > 9.00
EC50 selectivity (SDMA assay) [2, 3]: 13

COCC(=O)N(C)N(Cc1ccc(C(F)(F)F)cn1)C(=O)c1cc2c(cc1F)nc(N)c1cnn(C)c12 [Example 386, 4-amino-7-fluoro-N′-(2-methoxyacetyl)-N′,1-dimethyl-N-[[5-(trifluoromethyl)-2-pyridyl]methyl]pyrazolo[4,3-c]quinoline-8-carbohydrazide]
CC50 [1]: < 100 nM
pEC50 [2]: 8.30 to 9.00
EC50 selectivity (SDMA assay) [2, 3]: 20

Cn1ncc2c(N)nc3ccc(C(=O)N(Cc4ccc(C(F)(F)F)cn4)NC(=O)C4(F)CC4)cc3c21 [Example 308, 4-amino-N′-(1-fluorocyclopropane-1-carbonyl)-1-methyl-N-((5-(trifluoromethyl)pyridin-2-yl)methyl)-1H-pyrazolo[4,3-c]quinoline-8-carbohydrazide]
CC50 [1]: < 100 nM
pEC50 [2]: > 9.00
EC50 selectivity (SDMA assay) [2, 3]: 122

CC(=O)N(C)N(Cc1ccc(C(F)(F)F)cn1)C(=O)c1ccc2nc(N)c3c(c2c1)CO[C@@H]3C [Example 71, (3R)—N′-acetyl-4-amino-N′,3-dimethyl-N-[[5-(trifluoromethyl)-2-pyridyl]methyl]-1,3-dihydrofuro[3,4-c]quinoline-8-carbohydrazide]
CC50 [1]: < 100 nM
pEC50 [2]: 8.30 to 9.00
EC50 selectivity (SDMA assay) [2, 3]: 59

CC(=O)N(C)N(Cc1cc(F)c(F)cc1Cl)C(=O)c1ccc2nc(N)c3cnn(C)c3c2c1 [Example 450, N′-acetyl-4-amino-N-(2-chloro-4,5-difluorobenzyl)-N′,1-dimethyl-1H-pyrazolo[4,3-c]quinoline-8-carbohydrazide]
CC50 [1]: < 100 nM
pEC50 [2]: > 9.00
EC50 selectivity (SDMA assay) [2, 4]: 394

CC(=O)N(C)N(Cc1ccc(C#CC(C)(C)O)cc1F)C(=O)c1ccc2nc(N)c3cnn(C)c3c2c1 [Example 389, N′-acetyl-4-amino-N-[[2-fluoro-4-(3-hydroxy-3-methyl-but-1-ynyl)phenyl]methyl]-N′,1-dimethyl-pyrazolo[4,3-c]quinoline-8-carbohydrazide]
CC50 [1]: < 100 nM
pEC50 [2]: 8.30 to 9.00
EC50 selectivity (SDMA assay) [2, 3]: 31

Cn1ncc2c(N)nc3ccc(C(=O)N(Cc4ccc(C(F)(F)F)cn4)N4CC(F)(F)CCC4=O)cc3c21 [Example 13, 4-amino-N-(5,5-difluoro-2-oxo-1-piperidyl)-1-methyl-N-[[5-(trifluoromethyl)-2-pyridyl]methyl]pyrazolo[4,3-c]quinoline-8-carboxamide]
CC50 [1]: < 100 nM
pEC50 [2]: > 9.00
EC50 selectivity (SDMA assay) [2, 3]: 128

Cn1cc(-c2ccc(CN(C(=O)c3ccc4nc(N)c5cnn(C)c5c4c3)N3CCCCC3=O)nc2)cn1 [Example 130, 4-amino-1-methyl-N-((5-(1-methyl-1H-pyrazol-4-yl)pyridin-2-yl)methyl)-N-(2-oxopiperidin-1-yl)-1H-pyrazolo[4,3-c]quinoline-8-carboxamide]
CC50 [1]: < 100 nM
pEC50 [2]: 8.30 to 9.00
EC50 selectivity (SDMA assay) [2, 3]: 34

CCN(C)N(Cc1ccc(C(F)(F)F)cn1)C(=O)c1ccc2nc(N)c3cnn(C)c3c2c1 [Example 455, 4-amino-N′-ethyl-N′,1-dimethyl-N-((5-(trifluoromethyl)pyridin-2-yl)methyl)-1H-pyrazolo[4,3-c]quinoline-8-carbohydrazide]
CC50 [1]: < 100 nM
pEC50 [2]: > 9.00
EC50 selectivity (SDMA assay) [2, 4]: 92

CN(C(=O)C1CC1)N(Cc1ccc(-c2cnn(C(F)(F)F)c2)cc1Cl)C(=O)c1ccc2nc(N)c3cnn(C)c3c2c1 [Example 376, 4-amino-N-[[2-chloro-4-[1-(trifluoromethyl)pyrazol-4-yl]phenyl]methyl]-N′-(cyclopropanecarbonyl)-N′,1-dimethyl-pyrazolo[4,3-c]quinoline-8-carbohydrazide]
CC50 [1]: < 100 nM
pEC50 [2]: 8.30 to 9.00
EC50 selectivity (SDMA assay) [2, 3]: 164

CC(=O)N(C)N(Cc1ccc(-c2cnsc2)cc1F)C(=O)c1ccc2nc(N)c3cnn(C)c3c2c1 [Example 233, N′-acetyl-4-amino-N-(2-fluoro-4-(isothiazol-4-yl)benzyl)-N′,1-dimethyl-1H-pyrazolo[4,3-c]quinoline-8-carbohydrazide]
CC50 [1]: < 100 nM
pEC50 [2]: > 9.00
EC50 selectivity (SDMA assay) [2, 3]: 89

Cn1ncc2c(N)nc3ccc(C(=O)N(Cc4nc5cc(C(F)(F)F)ccc5n4C)N4CCCC4=O)cc3c21 [Example 420, 4-amino-1-methyl-N-((1-methyl-5-(trifluoromethyl)-1H-benzo[d]imidazol-2-yl)methyl)-N-(2-oxopyrrolidin-1-yl)-1H-pyrazolo[4,3-c]quinoline-8-carboxamide]
CC50 [1]: < 100 nM
pEC50 [2]: > 9.00
EC50 selectivity (SDMA assay) [2, 4]: 87

CN(C(=O)C1CC1)N(Cc1ccc(C(F)(F)F)cc1)C(=O)c1ccc2nc(N)c3cnn(C)c3c2c1 [Example 343, 4-amino-N′-(cyclopropanecarbonyl)-N′,1-dimethyl-N-(4-(trifluoromethyl)benzyl)-1H-pyrazolo[4,3-c]quinoline-8-carbohydrazide]
CC50 [1]: < 100 nM
pEC50 [2]: > 9.00
EC50 selectivity (SDMA assay) [2, 3]: 96

Cn1ncc2c(N)nc3cc(F)c(C(=O)N(Cc4ccc(C(F)(F)F)cn4)N4CCCCC4=O)cc3c21 [Example 149, 4-amino-7-fluoro-1-methyl-N-(2-oxopiperidin-1-yl)-N-((5-(trifluoromethyl)pyridin-2-yl)methyl)-1H-pyrazolo[4,3-c]quinoline-8-carboxamide]
CC50 [1]: < 100 nM
pEC50 [2]: 8.30 to 9.00
EC50 selectivity (SDMA assay) [2, 3]: 18

Cn1ncc2c(N)nc3ccc(C(=O)N(Cc4ccc(F)cc4F)N4CCOCC4)cc3c21 [Example 365, 4-amino-N-(2,4-difluorobenzyl)-1-methyl-N-morpholino-1H-pyrazolo[4,3-c]quinoline-8-carboxamide]
CC50 [1]: 100 to 1000 nM
pEC50 [2]: 8.30 to 9.00
EC50 selectivity (SDMA assay) [2, 3]: 233

COCCN(C)N(Cc1ccc(C(F)(F)F)cc1F)C(=O)c1ccc2nc(N)c3cnn(C)c3c2c1 [Example 396, 4-amino-N-[[2-fluoro-4-(trifluoromethyl)phenyl]methyl]-N′-(2-methoxyethyl)-N′,1-dimethyl-pyrazolo[4,3-c]quinoline-8-carbohydrazide]
CC50 [1]: < 100 nM
pEC50 [2]: 8.30 to 9.00
EC50 selectivity (SDMA assay) [2, 4]: 135

Cc1cc(CN(C(=O)c2ccc3nc(N)c4cnn(C)c4c3c2)N(C)C(=O)C2CC2)c(F)cc1-c1cnn(C(F)(F)F)c1 [Example 315, 4-amino-N′-(cyclopropanecarbonyl)-N-(2-fluoro-5-methyl-4-(1-(trifluoromethyl)-1H-pyrazol-4-yl)benzyl)-N′,1-dimethyl-1H-pyrazolo[4,3-c]quinoline-8-carbohydrazide]
CC50 [1]: < 100 nM
pEC50 [2]: > 9.00
EC50 selectivity (SDMA assay) [2, 3]: 160

CC(=O)NN(Cc1ccc(C(F)(F)F)cc1F)C(=O)c1ccc2nc(N)c3cnn(C)c3c2c1 [Example 445, N′-acetyl-4-amino-N-(2-fluoro-4-(trifluoromethyl)benzyl)-1-methyl-1H-pyrazolo[4,3-c]quinoline-8-carbohydrazide]
CC50 [1]: < 100 nM
pEC50 [2]: > 9.00
EC50 selectivity (SDMA assay) [2, 4]: 69

CN(C(=O)C1CCC1)N(Cc1ccc(C(F)(F)F)nn1)C(=O)c1ccc2nc(N)c3cnn(C)c3c2c1 [Example 104, 4-amino-N′-(cyclobutanecarbonyl)-N′,1-dimethyl-N-((6-(trifluoromethyl)pyridazin-3-yl)methyl)-1H-pyrazolo[4,3-c]quinoline-8-carbohydrazide]
CC50 [1]: < 100 nM
pEC50 [2]: 8.30 to 9.00
EC50 selectivity (SDMA assay) [2, 3]: 173

CC(=O)N(C)N(Cc1ccc(C#N)cc1Cl)C(=O)c1ccc2nc(N)c3cnn(C)c3c2c1 [Example 406, N′-acetyl-4-amino-N-(2-chloro-4-cyanobenzyl)-N′,1-dimethyl-1H-pyrazolo[4,3-c]quinoline-8-carbohydrazide]
CC50 [1]: < 100 nM
pEC50 [2]: > 9.00
EC50 selectivity (SDMA assay) [2, 4]: 212

COc1cc(C(F)(F)F)ccc1CN(C(=O)c1ccc2nc(N)c3cnn(C)c3c2c1)N(C)C(C)=O [Example 19, N′-acetyl-4-amino-N-[[2-methoxy-4-(trifluoromethyl)phenyl]methyl]-N′,1-dimethyl-pyrazolo[4,3-c]quinoline-8-carbohydrazide]
CC50 [1]: < 100 nM
pEC50 [2]: > 9.00
EC50 selectivity (SDMA assay) [2, 3]: 93

Cn1ncc2c(N)nc3cc(F)c(C(=O)N(Cc4nc5cc(Cl)ccc5n4C)N4CCCCC4=O)cc3c21 [Example 212, 4-Amino-N-[(5-chloro-1-methyl-benzimidazol-2-yl)methyl]-7-fluoro-1-methyl-N-(2-oxo-1-piperidyl)pyrazolo[4,3-c]quinoline-8-carboxamide]
CC50 [1]: < 100 nM
pEC50 [2]: 8.30 to 9.00
EC50 selectivity (SDMA assay) [2, 3]: 80

CN(CC1CCC1)N(Cc1ccc(C(F)(F)F)cn1)C(=O)c1cc2c(cc1F)nc(N)c1cnn(C)c12 [Example 453, 4-amino-N′-(cyclobutylmethyl)-7-fluoro-N′,1-dimethyl-N-((5-(trifluoromethyl)pyridin-2-yl)methyl)-1H-pyrazolo[4,3-c]quinoline-8-carbohydrazide]
CC50 [1]: < 100 nM
pEC50 [2]: > 9.00
EC50 selectivity (SDMA assay) [2, 4]: 15
